One data set relates to naïve mice. The experiment in a line: toxicity and Treg phenotype in naïve mice. The format is in vivo. As to the method:
B, FOXP3 MFI in WT and 22KO of Treg cells after treatment with 20 μg/kg of Usp22i-S02 in vivo (n=3). C, Representative flow cytometry plot of FOXP3+CD25+MFI of CD4+ peripheral cells of mice treated with 20 μg/kg of Usp22i-S 02 relative to control (n=5). D, Graphical representation of Foxp3 MFI upon Usp22i-S02 administration (n=5). E, Tumor growth curve of LLC1 cells subcutaneously injected in the flank of WT mice with or without the addition of 20 mg/kg/time of the Usp22 inhibitor starting at day 15, in 100 μL of oil (n=4). F-G, Representative flow cytometry plot and graphical representation of % infiltration of CD4+ and CD8+ T cells within the tumor (n=4). H, Representative histogram plot and graphical representation of intratumoral Treg (itTreg) Foxp3 MFI (n=4). I, MFI of itTreg suppressive markers (n=3-4). J, Percent Foxp3+IFNg+itTreg cells in control and Usp22-S02 treated mice (n=3-4). B, D-E, G, H-I Two-way ANOVA with multiple comparisons between rows was performed to determine statistical significance. J, Unpaired two tailed T test was performed to determine significance. All data are presented as mean±stdev. NS, not significant. *P<0.05, **P<0.01, ***P<0.001, ****P<0.0001.
A, Body weight of Usp22i-S02 treated mice verses DMSO treated controls over the course of treatment (n=4). A-F. Injections were twice a day for 3 consecutive days at 10 μg/kg (n=4). B, Percent of cell populations in naïve mice treated with Usp22i-S02 relative to DMSO control (n=3-4). […] D, Percent CD44^hiCD62L^lo in T cell populations gated on CD45+ cells in naïve mice treated with Usp22i-S02 relative to DMSO control (n=3). E, Percent Annexin+PI+ T cells gates on CD45+ cells in naïve mice treated with Usp22i-S02 relative to DMSO control (n=4). F-H, Organ toxicity panel (VetScan VS2 Comprehensive Diagnostic Rotor lot 1061AA2) of naïve mice treated with Usp22i-S02 relative to DMSO control (n=2-3). I, Growth curve of subcutaneously injected LLC1 in WT mice treated with Usp22i-S02 at 10 μg/kg (n=5-10). I-Q, Injections were twice a day for 5 consecutive days at 10 μg/kg. J, Weights of resected tumors at day 16 from I (n=10). K-L, Representative flow plot and graphical representation of infiltrating T cells gated on CD45+ cells (n=5). M-P, Characterization of intratumoral CD8+ T cells frome mice treated with Usp22i-S02 (n=3-5). Q, Percent of intratumoral Treg cells from mice treated with Usp22i-S02 verses DMSO control, gated on CD4+Foxp3+ from mice (n=5). A-E, I and L, Two-way ANOVA with Sidaks's multiple comparisons between rows relative to control was performed to determine statistical significance. F-H, J, and M-Q, Two-tailed unpaired t-test was performed to determine statistical significance. All data are presented as mean±stdev. NS, not significant. *P<0.05, **P<0.01, ***P<0.001, ****P<0.0001.
An important aspect of a potential immunotherapeutic is its antitumor functionality paired with low immune toxicity. To determine the toxicity of Usp22i-S02 in vivo, we first determined its effects in naïve mice.

In data set [1] the test system is FoxP3 and PD-L1 expression. Kind of data set: biological screening of FoxP3 and PD-L1 expression. It counts as cell-based. The note with it: inhibition of FoxP3 and PD-L1 expression. As for the experimental part:
Biological screening confirmed that USP22i-S02 inhibited the expression of FoxP3 and PD-L1 expression in a USP22-dependent manner. The IC50 is about 6-7 uM. […] In particular, modifications at the R position at A-Ring, or R1 and R2 at E-Ring are likely to improve its biological activity. Therefore, we used the SYBYL drug design software and generated a chemical library of 40400 derivatives (named as USP22-S02X) by modifying the A or/and E ring with 200 functional groups at the R or R1 or R2 or two of the three positions.

Data set [2] deals with LLC1 tumors in RAG−/− mice. Kind of data set: LLC1 tumor growth in RAG−/− mice. The format is in vivo. The note with it: treated for 3 days at day 15 of tumor growth. As to the method: (§1) FIG. 8: Usp22i-S02 inhibits tumor growth in vitro and in vivo. A, In vitro counts of LLC1 after treatment with Usp22i-S02 under various concentrations for 24 hours (n=2). B, In vitro viability of LLC1 after treatment with Usp22i-S02 under various concentrations for 24 hours (n=2). C, In vitro relative growth of LLC1 cells treated with 10 ug/ml of Usp22i-S02 relative to DMSO treated control for 7 days via OD600 (n=4). D, Growth curve of 1 million subcutaneously injected LLC1 cells into RAG−/− mice treated for 3 days Usp22i-S02 relative to DMSO control injections at day 15 of tumor growth (n=4). C-D, Two-way ANOVA with Sidaks's multiple comparisons between rows relative to control was performed to determine statistical significance. All data are presented as mean±stdev. NS, not significant. *P<0.05, **P<0.01, ***P<0.001, ****P<0.0001.
(§2) As Usp22 is also an important oncogene, we were interested in the potential dual-therapeutic function of Usp22i-S02.

Data set [3] concerns polarized CD4+ T-regulatory cells. Kind of data set: cytotoxicity in polarized CD4+ T-regulatory cells. It counts as cell-based, murine. The note with it: 156 ng/mL to 5 ug/mL, compared to DMSO controls. As to the method:
FIG. 2: Cytotoxicity of compounds from 156 ng/mL to 5 ug/mL concentration range in polarized CD4+ T-regulatory cells. Murine CD4+ T-cells were isolated and polarized in vitro to T-regulatory cells using 5 ng/mL IL-2, 2 μg/mL anti-IL-4, 2 μg/mL anti-IFNγ, and 1 ng/mL TGFβ. After 48 hours, the inhibitors were added to the cells.
We then synthesized all 17 compounds and validated their cytotoxicity to regulatory T cells. To this end, mouse CD4 T cells were polarized to FoxP3 Tregs for two days, followed by treatment of the cells with each of the compounds at the doses upto 5 ug/ml. […] In addition, the rest of the compounds had poor solubility in DMSO, and were not further tested.

The next data set relates to LLC1 cells. The experiment in a line: LLC1 cell counts, viability and growth in vitro. The note with it: 24 hours various concentrations; 10 ug/ml for 7 days. It counts as cell-based. As for the experimental part: as §1, §2

With `N#Cc1c2c(c(Nc3ccccc3)n3c1nc1ccccc13)CCCC2` [USP22i-S02, 11-anilino-7,8,9,10-tetrahydrobenzimidazo[1,2-b]isoquinoline-6-carbonitrile], the “FOXP3 MFI in Usp22-KO mice” value with naïve mice (Usp22-KO mice, 20 μg/kg) is “no additional decrease to FOXP3 MFI”. In the data set with naïve mice (WT mice, 20 μg/kg), the “FOXP3 MFI in Treg cells from spleen and lymph nodes” value is “significant drop in FOXP3 MFI”. In the data set on naïve mice (naïve mice), the Treg cell death result is recorded as “significantly increased”, the Treg percentage result is on record as “decrease in Treg percentage” and the Treg proliferation entry was “also increased”. In the data set on naïve mice (naïve mice versus DMSO control), the “organ toxicity (comprehensive tissue panel)” value was “no organ toxicity differences”. Moreover, the “weights, B cell and Teff cell percentages and proliferation, Teff cell activation” value in the data set with naïve mice (naïve mice versus DMSO-treated control, twice a day for 3 days at 10 μg/kg) is “little alteration”. Besides, the IC50 (in general, the point on the concentration scale where inhibition reaches its midpoint) in data set [1] was in the range of 6 to 7 µM. Further, the “tumor growth in Rag−/− mice with established tumors” value in data set [2] is listed as “small but statistically significant decrease in tumor growth”. Moreover, the “cytotoxicity to Tregs” value in data set [3] is reported as “does not show severe cytotoxicity”. Besides, the “LLC1 tumor cell counts, viability and growth in vitro” value in the data set with LLC1 cells was “decreased tumor cell counts, viability, and growth”.
